# From patent US20230114207A1, “THE COMBINATION OF CYCLIN DEPENDENT KINASE 7 INHIBITOR AND IMMUNOTHERAPY FOR TREATMENT OF CANCER” (Dana-Farber Cancer Institute, Inc., priority 2019, published 2023)
# Columns and labels:
# [1] = test system: Cyclin K, the obligate binding partner of CDK12/13; experiment: Competitive pulldown assay (Bio-THZ1), Cyclin K; assay type: cell-based, mouse; settings: SCLC cells treated 6 hours
# Procedure: (§1) Bio-THZ1 pulldown experiments followed by western blotting of enriched proteins was performed as described in Kwiatkowski, et al., Nature, 2014, 511, 616-620. Briefly, cells were treated with YKL-5-124 or DMSO for 6 hr (in vitro) or 72 hr (in vivo). Following treatment, cells were washed twice with cold PBS and then lysed in the following lysis buffer: 50 mM TrisHCI pH 8.0, 150 mM NaCl, 1% NP-40, 5 mM EDTA, 1 mM DTT, and protease/phosphatase cocktails. Following clearance, lysates were treated with biotinylated THZ1 for pulldown overnight at 4° C. Lysates were further incubated at room temperature for 3 hr to increase the efficiency of covalent bond formation. Lysates were then incubated with streptavidin agarose for pulldown for an additional 2-3 hr at 4° C. Agarose beads were washed 5 times with lysis buffer and then boiled in 2×SDS at 95° C. SDS-page resolved precipitated proteins were probed for the indicated proteins.
# [2] = test system: RPP631 and GLC16 cells; experiment: Immunofluorescence of γH2AX foci and micronuclei; assay type: cell-based, mouse, human
# Procedure: Before fixation, cells in PBS were seeded for 30 min on 0.01% Poly-lysine coated coverslip. Cells were then fixed in 4% paraformaldehyde (Diluted the 32% paraformaldehyde in PBS, Electron Microscopy Sciences 15714) for 10 min at room temperature. Cells were washed three times for 5 min with 200 mM glycine containing PBS, followed by permeabilization with 0.3% Triton X-100 in PBS for 15 min. After blocking with 5% bovine serum albumin (BSA) in PBS for 1 hour, cells were incubated with primary antibody (γH2A.X, Cell signaling 9718, 1:200) diluted in a 5% BSA in PBS solution overnight at 4° C. After washing four times with PBS, cells were incubated with Alexa Fluor Plus 555 (Invitrogen A32732, 1: 500) secondary antibody for 1 hour and washed three times with PBS. Cell nuclei were counterstained with DAPI (Biolengend 422801, diluted to 600 nM in PBS) for 5 min. Cells were washed two more times in PBS before mounting with Fluorescence Mounting Medium (Dako, S3023). Images were acquired using Zeiss 880 Laser Scanning Confocal Microscope and were processed by FIJI (NIH). Micronucleus were identified manually by distinct DAPI staining outside the main nucleus.
# [3] = In vivo toxicity evaluation in C57BL/6 mice
# Procedure: For evaluation of in vivo toxicity of YKL-5-124, a dose-escalating study from 2.5 mg/kg to 15 mg/kg q.d. five times/week via intraperitoneal injection (i.p.) was tested in C57BL/6 mice. In vivo toxicities including body weight and blood cell counts including platelet, red blood cells and white blood cells were monitored. Similarly, a separate cohort was used to evaluate in vivo toxicity of combining YKL-5-124 and anti-PD-1 in C57BL/6 mice. For treatment studies, mice were evaluated by MRI imaging (Preclinical Imaging Laboratory, NYULH) to quantify lung tumor burden before for randomization and after drug treatment for efficacy evaluation. Mice were treated with either vehicle and isotype IgG (Control), anti-PD-1 200 μg/mouse (clone 29F.1A12), YKL-5-124 10 mg/kg, or combined anti-PD-1 and YKL-5-124 (Combo). YKL-5-124 was administered daily from Monday to Friday, and PD-1 antibody was administered three times a week (Monday, Wednesday, and Friday). For chemotherapy, cisplatin (5 mg/kg) was given on Day 1 and etoposide (10 mg/kg) on Day 1, 2, 3 every seven days per cycle for three cycles.
# [4] = molecular target: T1, CDK7 (Mus musculus, UniProt Q03147); experiment: In vivo target engagement by competitive pulldown assay; settings: 10 mg/kg
# T1 construct: from tissue
# Procedure: as §1
# [5] = test system: RPP GEMMs; experiment: Treatment study in autochthonous RPP GEMMs; assay type: in vivo, mouse
# Procedure: All animal studies were reviewed and approved by the Institutional Animal Care and Use Committee (IACUC) at the New York University Langone Health (NYULH) and Dana-Farber Cancer Institute (DFCI). From 6 weeks of age, mice were induced with adenovirus-Cre recombinase (Ad-Cre) by intratracheal intubation to allow cre-lox-mediated recombination of floxed Rb1, p53 and p130 alleles. For syngeneic orthotopic models, ultrasound-guided transthoracic injection was performed using 200,000 RPP631, RP or RPP-MYC cells in 30 μL PBS directly into the lung of 6 to S-week-old C57BL/6 (Jackson Laboratory, Stock No: 000664). For OT-IT cell assay, OT-I mice were purchased from the Jackson Laboratory (Stock No: 003S31). Both males and females mice were used and all mice were maintained in accordance with the respective NYULH and DFCI on the care, welfare, and treatment of laboratory animals. […]
# Animals were anesthetized with isoflurane to perform MRI of the lung field using BioSpec USR70/30 horizontal bore system (Bruker) to scan 24 consecutive sections. Tumor volumes within the whole lung were quantified using 3-D slicer software to reconstruct MRI volumetric measurements as described previously. […]
# [6] = test system: tumor-infiltrating immune cells, RPP orthotopic model; experiment: Immune profiling flow cytometry of tumor-bearing lung; assay type: in vivo, mouse
# Procedure: Mice were humanely euthanized, and mouse lungs were perfused using sterile PBS through heart perfusion from the left ventricle after BAL fluid collection. The whole lung was cut and minced into small pieces followed by digestion in collagenase D (Sigma-Aldrich) and DNase I (Sigma-Aldrich) in Hank's Balanced Salt Solution (HBSS) at 37° C. for 30 minutes. After incubation, the digested tissue was subjected to a 70 μm cell strainer (Thermo Fisher Scientific) to obtain single-cell suspensions. Separated cells were treated with 1×red blood cell (RBC) lysis buffer (BioLegend). Live cells were determined by LIVE/DEAD fixable aqua dead cell stain kit (Molecular Probes). The cell pellets were resuspended in PBS with 2% FBS for FAGS analysis. Cells were stained with cell surface markers as indicated followed by fixation/permeabilization (eBioscience). Cells were imaged on BD LSRFortessa (BD Biosciences) and analyzed using FlowJo software (Tree Star).
# T1 sequence (Q03147 2-346 limits assumed): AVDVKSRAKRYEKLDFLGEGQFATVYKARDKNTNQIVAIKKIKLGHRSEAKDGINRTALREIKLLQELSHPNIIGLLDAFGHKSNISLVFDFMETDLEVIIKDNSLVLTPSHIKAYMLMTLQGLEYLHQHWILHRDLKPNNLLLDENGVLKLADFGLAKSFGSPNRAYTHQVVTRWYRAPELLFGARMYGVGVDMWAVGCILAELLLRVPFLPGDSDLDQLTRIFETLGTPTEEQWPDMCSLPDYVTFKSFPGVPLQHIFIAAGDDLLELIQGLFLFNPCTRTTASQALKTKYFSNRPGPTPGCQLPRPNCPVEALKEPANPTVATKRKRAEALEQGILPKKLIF
# T1 sequence (Q61458 whole entry partner): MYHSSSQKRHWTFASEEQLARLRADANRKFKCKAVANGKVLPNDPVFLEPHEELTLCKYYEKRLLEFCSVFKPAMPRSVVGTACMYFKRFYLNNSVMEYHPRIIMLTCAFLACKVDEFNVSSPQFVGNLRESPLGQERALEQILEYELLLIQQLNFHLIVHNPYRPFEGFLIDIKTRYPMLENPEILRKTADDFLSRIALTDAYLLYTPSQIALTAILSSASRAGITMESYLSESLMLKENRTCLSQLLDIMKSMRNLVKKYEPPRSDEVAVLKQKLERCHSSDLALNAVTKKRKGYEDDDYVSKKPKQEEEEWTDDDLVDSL
# T1 sequence (P51949 whole entry partner): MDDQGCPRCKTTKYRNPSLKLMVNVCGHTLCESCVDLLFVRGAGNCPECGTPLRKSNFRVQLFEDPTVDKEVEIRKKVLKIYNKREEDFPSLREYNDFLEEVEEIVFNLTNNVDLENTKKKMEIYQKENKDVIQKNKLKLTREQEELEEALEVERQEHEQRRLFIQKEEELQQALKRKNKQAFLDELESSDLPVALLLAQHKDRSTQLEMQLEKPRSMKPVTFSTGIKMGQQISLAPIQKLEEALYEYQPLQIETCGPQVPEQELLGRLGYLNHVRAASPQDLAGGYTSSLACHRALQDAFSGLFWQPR
smiles,measurement,setting,value
C=CC(=O)Nc1ccc(C(=O)Nc2n[nH]c3c2CN(C(=O)N[C@H](CN(C)C)c2ccccc2)C3(C)C)cc1 [YKL-5-124],block of pulldown of Cyclin K,[1],failed to block
same,percentages of cells containing micronuclei,[2]; RPP631 and GLC16,considerably increased
same,γH2AX foci,[2]; after 48 hr,significant increase
same,well tolerated dose,"[3]; C57BL/6, mouse, in vivo, ip",up to 10 mg/kg
same,body weight and blood counts,[3]; dose up to 10 mg/kg,no significant change
same,target engagement in tumor-bearing mice,[4],further confirmed
same,mice with more than 50% increase of tumor burden,[5]; 3-week time point,none
same,median overall survival,[5]; RPP GEMMs,56 days
same,CD44^highCD62L^+ effector CD4^+ T cells (CD44^highCD62L^low for the combination),[6]; 7-day treatment,substantial increase
same,GzmB^+ CD8^+ T cells percentage,[6]; 7-day treatment,considerable but equivalent increase
same,ICOS^+ CD4^+ T cells,[6]; 7-day treatment,significantly higher frequencies
same,frequencies of total CD4^+ T cell infiltrates,[6]; 7-day treatment,no significant change
same,frequencies of total CD8^+ T cell infiltrates,[6]; 7-day treatment,no significant change
same,tumor-infiltrating CD4^+ T cells expressing Ki67,[6]; 7-day treatment,modest increase
same,percentages of tumor resident DCs (MHCII^+ CD11c^+ CD103^+),[6]; compared to control mice,significant increase
